Like-named read-outs stand apart in the source and are kept apart here.
Key:
hERG = molecular target: T1, hERG (Homo sapiens, UniProt Q12809); experiment: hERG channel binding assay ([3H]astemizole displacement, HEK293 membranes); settings: probe [3H]astemizole, at 10 μM, read-out: hERG binding (percent inhibition of [3H]astemizole binding)
T1 construct: expressed in transfected cells; host or cells: HEK293 cells, stably transfected; membranes used
Protocol: (§1) A hERG binding assay is a primary screening method used to evaluate potential activity of a compound against the hERG potassium channel. The affinity of a compound for the hERG channel is measured in vitro by examining displacement of tritiated-[^3H]astemizole, a high affinity hERG channel ligand. In this assay, membranes from HEK293 cells stably transfected with the human hERG channel cDNA are incubated with a range of concentrations of each test compound, vehicle (10% DMSO), or a positive control and [^3H]astemizole.
After a 1-hr incubation, the membranes are harvested onto GF/B filters, the filters dried and the radioactivity is measured. For each test compound, percent inhibition of [^3H]astemizole binding is calculated relative to control binding and IC50 values determined by linear regression. Each assay includes a positive control (i.e., Cisapride) that is tested in parallel with test compounds. At present, there is no gold standard preclinical test available to predict QT prolongation in humans. Therefore to assess potential cardiotoxicity, cardiovascular effects are evaluated preclinically in several different tests including the hERG channel binding assay.
hERG Channel Binding Assay
In the hERG channel binding assay, the ability of test compounds to displace ^3H-astemizole (a high affinity hERG channel ligand) is measured.
as §1, with “[^3H]astemizole. After a 1-hr incubation, the membranes are harvested onto GF/B filters, the filters dried and the radioactivity is measured.” for “[^3H]astemizole.”
For each test compound, percent inhibition of [^3H]astemizole binding is calculated relative to control binding and IC50 values determined by linear regression. Each assay includes a positive control (i.e., Cisapride) that is tested in parallel with test compounds.

[1] = molecular target: T2, human A2a adenosine receptor (Homo sapiens, UniProt P29274); experiment: Ligand binding assay for adenosine A2a receptor ([3H]CGS21680, HEK293 plasma membrane)
T2 construct: purchased PerkinElmer RB-HA2a; host or cells: HEK293 cell plasma membranes

[2] = radioligand [3H]CGS21680, read-out: Ki A2a binding

T1 sequence (Q12809 whole entry): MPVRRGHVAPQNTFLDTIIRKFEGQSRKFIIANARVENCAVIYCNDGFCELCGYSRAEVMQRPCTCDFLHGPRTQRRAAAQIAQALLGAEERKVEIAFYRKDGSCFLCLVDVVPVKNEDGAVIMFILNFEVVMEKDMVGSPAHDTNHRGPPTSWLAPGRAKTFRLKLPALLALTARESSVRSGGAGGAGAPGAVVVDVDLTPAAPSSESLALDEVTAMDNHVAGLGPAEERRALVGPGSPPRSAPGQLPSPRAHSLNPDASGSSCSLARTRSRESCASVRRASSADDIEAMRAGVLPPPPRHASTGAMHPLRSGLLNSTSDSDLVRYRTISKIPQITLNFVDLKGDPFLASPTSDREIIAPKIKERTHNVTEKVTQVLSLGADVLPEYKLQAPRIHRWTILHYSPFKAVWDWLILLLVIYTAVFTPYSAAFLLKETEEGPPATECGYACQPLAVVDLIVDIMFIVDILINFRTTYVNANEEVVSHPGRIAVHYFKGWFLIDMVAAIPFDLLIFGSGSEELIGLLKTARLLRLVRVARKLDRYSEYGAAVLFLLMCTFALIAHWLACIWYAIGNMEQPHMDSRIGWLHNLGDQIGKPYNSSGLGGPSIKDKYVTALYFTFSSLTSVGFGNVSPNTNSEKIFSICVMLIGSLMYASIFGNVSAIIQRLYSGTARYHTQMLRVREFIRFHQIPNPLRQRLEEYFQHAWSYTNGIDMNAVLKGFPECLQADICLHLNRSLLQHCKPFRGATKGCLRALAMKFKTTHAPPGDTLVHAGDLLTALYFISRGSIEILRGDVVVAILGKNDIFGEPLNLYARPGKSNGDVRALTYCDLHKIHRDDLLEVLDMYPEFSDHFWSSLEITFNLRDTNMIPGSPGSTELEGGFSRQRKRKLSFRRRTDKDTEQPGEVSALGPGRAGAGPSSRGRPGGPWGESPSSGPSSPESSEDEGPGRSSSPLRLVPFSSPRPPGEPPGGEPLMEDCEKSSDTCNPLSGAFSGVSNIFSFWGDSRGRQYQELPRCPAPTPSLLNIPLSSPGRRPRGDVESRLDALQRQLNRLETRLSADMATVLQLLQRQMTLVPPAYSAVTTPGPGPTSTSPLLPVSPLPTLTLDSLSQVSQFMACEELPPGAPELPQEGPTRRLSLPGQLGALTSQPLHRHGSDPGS
T2 sequence (P29274 whole entry): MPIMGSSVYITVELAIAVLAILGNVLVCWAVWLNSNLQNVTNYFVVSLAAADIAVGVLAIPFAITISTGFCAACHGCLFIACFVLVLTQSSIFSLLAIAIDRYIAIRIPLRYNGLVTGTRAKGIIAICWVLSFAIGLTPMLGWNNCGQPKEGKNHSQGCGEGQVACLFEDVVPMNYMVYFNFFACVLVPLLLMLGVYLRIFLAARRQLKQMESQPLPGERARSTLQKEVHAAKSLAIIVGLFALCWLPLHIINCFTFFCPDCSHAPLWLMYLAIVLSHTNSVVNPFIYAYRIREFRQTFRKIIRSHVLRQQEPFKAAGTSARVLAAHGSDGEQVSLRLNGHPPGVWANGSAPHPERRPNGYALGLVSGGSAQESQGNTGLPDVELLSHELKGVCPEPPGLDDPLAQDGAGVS

Row | Ki [1, 2] [nM] | Ki [1] [nM] | SMILES | inhibition at 1 h, 10 µM (hERG) [%]
1 | 6.69 |  | Nc1nc(-c2ccccc2)c2c(n1)-c1cc(CN3CCCC3)ccc1C2=O [Compound 1] | 1.4
2 | 9.4 |  | Nc1nc(-c2ccccc2)c2c(n1)-c1cc(CN3CCC(=O)CC3)ccc1C2=O [Compound 3] | 13.8
3 | 5.39 |  | Nc1nc(-c2ccccc2)c2c(n1)-c1cc(CN3CCOCC3)ccc1C2=O [Compound 6] | -12.5
4 | 7.9 |  | Nc1nc(-c2ccccc2)c2c(n1)-c1cc(CN3CCC(O)C3)ccc1C2=O (stereo not drawn) [Compound 4] | 27.8
5 | 5.8 |  | Nc1nc(-c2ccccc2)c2c(n1)-c1cc(CN3CCC(O)CC3)ccc1C2=O [Compound 5] | 26.2
6 |  | 10.2 | Nc1nc(-c2ccccc2)c2c(n1)-c1cc(CNCc3ccccn3)ccc1C2=O [Compound 2] | 34.5

— patent publication US20110312956A1, “ARYLINDENOPYRIMIDINES WITH REDUCED hERG CHANNEL BINDING” (priority 2010, published 2011)
